Experimental data: ChEMBL document CHEMBL1201862, “PubChem BioAssay data set” (2004)
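48-hour exposure; five concentrations; linearly interpolated endpoints. GI50: concentration for 50% inhibition of growth.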 Activity calls are given as the source filed them. Rule as the data show it: active = GI50 up to about 1.1 µM and inactive = higher.

Columns and labels:
Test in all cases: growth of human tumour cells (NCI), 48 h
XF498 = test system: XF498
RXF 631 = test system: RXF 631
LXFL 529 = test system: LXFL 529
DMS-114 = test system: DMS-114
KM-20L2 = test system: KM-20L2
DMS-273 = test system: DMS-273
SNB-78 = test system: SNB-78
M19-MEL = test system: M19-MEL
HOP-18 = test system: HOP-18

| Structure (SMILES) | GI50 (XF498) | GI50 (RXF 631) | GI50 (LXFL 529) | GI50 (DMS-114) | GI50 (KM-20L2) | GI50 (DMS-273) | GI50 (SNB-78) | GI50 (M19-MEL) | GI50 (HOP-18) |
| --- | --- | --- | --- | --- | --- | --- | --- | --- | --- |
| CCOC(=O)[C@H]1Nc2ccc(OC)cc2C2c3ccccc3CC21 (stereo partly specified) | > 100 µM (inactive) | > 100 µM (inactive) | > 100 µM (inactive) | > 100 µM (inactive) | > 100 µM (inactive) | > 100 µM (inactive) | > 100 µM (inactive) | > 100 µM (inactive) | – |
| Cc1nc(O)nc(CC(O)(c2ccccc2)c2ccccc2)c1-c1ccccc1 | – | > 100 µM (inactive) | > 100 µM (inactive) | 80.5 µM (inactive) | > 100 µM (inactive) | > 100 µM (inactive) | > 100 µM (inactive) | > 100 µM (inactive) | > 100 µM (inactive) |
| CS/C(=N/C(=O)c1ccccc1Cl)SCCS/C(=N\C(=O)c1ccccc1Cl)SC | > 100 µM (inactive) | – | – | > 100 µM (inactive) | > 100 µM (inactive) | > 100 µM (inactive) | > 100 µM (inactive) | > 100 µM (inactive) | – |
| CN(C)CCSc1nccc(-c2cc3ccccc3s2)n1 | – | – | 16.8 µM (inactive) | 23.2 µM (inactive) | – | 15.9 µM (inactive) | 16.3 µM (inactive) | – | < 0.01 µM (active) |
| Cc1nc2c(n1CC(C)(C)C)C(=O)c1ccccc1C2=O | > 100 µM (inactive) | – | > 100 µM (inactive) | – | > 100 µM (inactive) | 76.9 µM (inactive) | > 100 µM (inactive) | – | – |
| CC[C@@]1(OC(=O)CCC(=O)O)C(=O)OCc2c1cc1n(c2=O)Cc2cc3ccccc3nc2-1 | 0.497 µM (active) | 0.427 µM (active) | 2.01 µM (inactive) | 0.046 µM (active) | 0.979 µM (active) | < 0.0203 µM (active) | 2.77 µM (inactive) | 0.239 µM (active) | 0.492 µM (active) |
| CNS(=O)(=O)NNS(=O)(=O)c1cccc([N+](=O)[O-])c1 | – | – | > 100 µM (inactive) | > 100 µM (inactive) | > 100 µM (inactive) | > 100 µM (inactive) | – | > 100 µM (inactive) | – |
| N#Cc1ccc(Nc2cnc3cc(N)ccc3n2)cc1 | 74.6 µM (inactive) | – | 59.7 µM (inactive) | 60.5 µM (inactive) | 94 µM (inactive) | > 100 µM (inactive) | > 100 µM (inactive) | 89.7 µM (inactive) | – |
| CC1(O)CC2(O)C=CC3=C(C(=O)c4cccc(O)c4C3=O)C2(O)C(=O)C1O (stereo unspecified) | – | – | 0.495 µM (active) | 1.67 µM (inactive) | 1.16 µM (inactive) | 5.08 µM (inactive) | – | 0.646 µM (active) | 1.7 µM (inactive) |
| COC(=O)c1ccc(C(=O)OC)c2nc3cc(Cl)ccc3nc12 | > 100 µM (inactive) | > 100 µM (inactive) | > 100 µM (inactive) | > 100 µM (inactive) | > 100 µM (inactive) | > 100 µM (inactive) | – | > 100 µM (inactive) | > 100 µM (inactive) |
| COc1cc(C2c3cc4c(cc3[C@@H](Nc3cccc(O)c3)C3COC(=O)[C@H]23)OCO4)cc(OC)c1O (stereo partly specified) | 0.766 µM (active) | – | 2.55 µM (inactive) | 0.794 µM (active) | 2.16 µM (inactive) | 0.887 µM (active) | 6.03 µM (inactive) | 1.97 µM (inactive) | 8.59 µM (inactive) |
| CCCC/C=C1\CCC(CN2CCCC2)C1=O (stereo unspecified) | 16.1 µM (inactive) | 17.7 µM (inactive) | 1.56 µM (inactive) | 15.9 µM (inactive) | 14.7 µM (inactive) | 16.7 µM (inactive) | 26.4 µM (inactive) | 16.9 µM (inactive) | – |
| N=C(NNS(=O)(=O)c1ccccc1)Oc1ccc(Br)cc1Br | > 100 µM (inactive) | > 100 µM (inactive) | > 100 µM (inactive) | > 100 µM (inactive) | > 100 µM (inactive) | > 100 µM (inactive) | > 100 µM (inactive) | > 100 µM (inactive) | > 100 µM (inactive) |
| CCOC(=O)NC(=O)c1cn(CCCOC(=O)CCCCCCCCC(=O)OCCCn2cc(C(=O)NC(=O)OCC)c(=O)n(C)c2=O)c(=O)n(C)c1=O | > 54.3 µM (inactive) | > 80.7 µM (inactive) | > 100 µM (inactive) | > 100 µM (inactive) | > 100 µM (inactive) | > 100 µM (inactive) | – | > 100 µM (inactive) | > 100 µM (inactive) |
| OCCN(CCO)c1ncnc2c1sc(=S)n2-c1ccccc1 | > 100 µM (inactive) | – | > 100 µM (inactive) | > 100 µM (inactive) | > 100 µM (inactive) | > 100 µM (inactive) | > 100 µM (inactive) | > 100 µM (inactive) | > 100 µM (inactive) |
| NCCNc1cccc2ccccc12 | – | > 100 µM (inactive) | > 100 µM (inactive) | > 100 µM (inactive) | > 100 µM (inactive) | > 100 µM (inactive) | > 100 µM (inactive) | > 100 µM (inactive) | > 100 µM (inactive) |
| CCOC(=O)C1=C(C)N(NC(=O)Nc2ccccc2)C2(N)N(NC(=O)Nc3ccccc3)C(C)=C(C(=O)OCC)C12C#N (stereo unspecified) | – | – | 18.6 µM (inactive) | 16.1 µM (inactive) | 18.7 µM (inactive) | 17 µM (inactive) | 19.4 µM (inactive) | 17.8 µM (inactive) | 16.3 µM (inactive) |
| CCOC(=O)C12CCSC1C1(C#N)C(C#N)=CC2(N=P(c2ccccc2)(c2ccccc2)c2ccccc2)n2c(=O)n(-c3ccccc3)c(=O)n21 (stereo unspecified) | 24.3 µM (inactive) | 70 µM (inactive) | 28.8 µM (inactive) | 29.4 µM (inactive) | 65 µM (inactive) | – | 68.5 µM (inactive) | 33.4 µM (inactive) | – |
| C/C(CC(=O)Nc1ccc(C)c(C)c1)=N\NC(N)=O | – | – | > 100 µM (inactive) | > 100 µM (inactive) | > 100 µM (inactive) | – | > 100 µM (inactive) | > 100 µM (inactive) | – |
| CC1=NN(C(=O)c2ccncc2)C(=O)C1/N=N/c1ccc(F)cc1 (stereo unspecified) | > 100 µM (inactive) | – | > 100 µM (inactive) | > 100 µM (inactive) | > 100 µM (inactive) | 92.5 µM (inactive) | 63.1 µM (inactive) | > 100 µM (inactive) | – |
| C/C(=N\NC(=N)N)C(CN1CCOCC1)C(c1ccccc1)c1c(O)c2ccccc2oc1=O (stereo unspecified) | > 100 µM (inactive) | – | > 100 µM (inactive) | 45.8 µM (inactive) | > 100 µM (inactive) | > 100 µM (inactive) | 50.8 µM (inactive) | > 100 µM (inactive) | > 100 µM (inactive) |
| N#CC1=C(N)Oc2c(ccc3cccnc23)C1c1ccccc1 (stereo unspecified) | 7.98 µM (inactive) | – | 1.7 µM (inactive) | 0.914 µM (active) | 0.555 µM (active) | 0.445 µM (active) | 1.45 µM (inactive) | 1.67 µM (inactive) | > 100 µM (inactive) |
| Cc1nc2nnc(C)n2c2c1C(=O)Nc1ccccc1N2 | > 100 µM (inactive) | – | > 100 µM (inactive) | > 100 µM (inactive) | > 100 µM (inactive) | > 100 µM (inactive) | > 100 µM (inactive) | > 100 µM (inactive) | > 100 µM (inactive) |
